Test results from publication PMC11572954 (Science (New York, N.Y.), 2024).

Assays:
GPR84 = GPR84 (Homo sapiens, UniProt Q9NQS5); test: DiscoverX cell-based reporter assay, agonist mode
PPARα = molecular target: T1, PPARα (Homo sapiens, UniProt Q07869); test: DiscoverX cell-based reporter assay, agonist mode
T1 sequence (Q07869 1-468): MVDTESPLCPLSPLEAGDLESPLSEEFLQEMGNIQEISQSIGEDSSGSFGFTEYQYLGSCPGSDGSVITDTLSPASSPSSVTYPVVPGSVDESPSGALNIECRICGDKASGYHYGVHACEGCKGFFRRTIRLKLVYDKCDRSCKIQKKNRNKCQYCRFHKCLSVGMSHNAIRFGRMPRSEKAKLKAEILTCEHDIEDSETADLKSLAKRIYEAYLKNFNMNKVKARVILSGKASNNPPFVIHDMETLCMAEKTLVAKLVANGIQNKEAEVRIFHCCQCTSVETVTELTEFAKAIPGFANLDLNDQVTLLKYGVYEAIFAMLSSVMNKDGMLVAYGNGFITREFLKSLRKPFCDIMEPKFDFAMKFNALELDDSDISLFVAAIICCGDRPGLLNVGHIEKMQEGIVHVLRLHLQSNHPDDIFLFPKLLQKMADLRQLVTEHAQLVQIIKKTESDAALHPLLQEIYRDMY

PPARδ = molecular target: T2, PPARδ (Homo sapiens, UniProt Q03181); test: DiscoverX cell-based reporter assay, agonist mode
T2 sequence (Q03181 1-441): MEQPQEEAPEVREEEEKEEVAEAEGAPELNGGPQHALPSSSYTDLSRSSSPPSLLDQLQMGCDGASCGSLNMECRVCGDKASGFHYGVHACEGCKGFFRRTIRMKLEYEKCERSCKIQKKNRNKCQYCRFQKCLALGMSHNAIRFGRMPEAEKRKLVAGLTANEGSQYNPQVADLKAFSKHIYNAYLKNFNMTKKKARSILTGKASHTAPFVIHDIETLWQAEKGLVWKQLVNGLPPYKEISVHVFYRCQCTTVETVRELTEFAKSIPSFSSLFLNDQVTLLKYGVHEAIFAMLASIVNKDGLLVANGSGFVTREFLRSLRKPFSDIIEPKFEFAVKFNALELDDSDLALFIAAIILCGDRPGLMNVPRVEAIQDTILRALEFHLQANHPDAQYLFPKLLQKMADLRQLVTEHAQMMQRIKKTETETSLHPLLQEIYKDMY

[1] = molecular target: T3, F. prausnitzii FAAH (CGOBPECO_01956) (Faecalibacterium prausnitzii, UniProt A0A564UB45); test: LC-MS hydrolysis rate assay; type: biochemical; settings: 100 uM OEA
T3 sequence (A0A564UB45 31-399): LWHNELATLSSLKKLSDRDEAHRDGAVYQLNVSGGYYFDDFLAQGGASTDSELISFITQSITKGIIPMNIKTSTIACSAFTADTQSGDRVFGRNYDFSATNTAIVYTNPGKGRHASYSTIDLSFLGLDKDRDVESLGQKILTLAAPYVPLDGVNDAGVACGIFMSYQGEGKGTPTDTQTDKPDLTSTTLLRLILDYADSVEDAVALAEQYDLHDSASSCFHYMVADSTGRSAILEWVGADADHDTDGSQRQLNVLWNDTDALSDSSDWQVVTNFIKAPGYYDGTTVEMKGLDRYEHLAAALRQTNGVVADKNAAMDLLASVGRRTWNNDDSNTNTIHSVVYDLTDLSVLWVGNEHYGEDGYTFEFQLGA

Chain of GPR84 (Q9NQS5 whole entry): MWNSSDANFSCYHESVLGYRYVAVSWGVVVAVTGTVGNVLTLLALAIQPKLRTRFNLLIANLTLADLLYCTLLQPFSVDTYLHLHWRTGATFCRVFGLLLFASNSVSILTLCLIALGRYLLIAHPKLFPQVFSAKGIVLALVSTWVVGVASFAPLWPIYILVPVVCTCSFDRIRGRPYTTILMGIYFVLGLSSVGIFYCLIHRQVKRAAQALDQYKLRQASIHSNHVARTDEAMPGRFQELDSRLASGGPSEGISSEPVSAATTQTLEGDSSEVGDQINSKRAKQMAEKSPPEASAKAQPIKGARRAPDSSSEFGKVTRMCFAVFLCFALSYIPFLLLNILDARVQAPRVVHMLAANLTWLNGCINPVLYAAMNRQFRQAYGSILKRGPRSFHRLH

`CCCCCCCC/C=C\CCCCCCCC(=O)NCCO` [OEA] was tested, and the “% activation at 10 μM” value (GPR84) was “GPR84, which was strongly activated by OEA”, the “% activation at 10 μM” value (PPARα) was “OEA was a strong agonist of PPARδ and to a lesser extent PPARα” and the “% activation at 10 μM” value (PPARδ) was “OEA was a strong agonist of PPARδ and to a lesser extent PPARα”. For the same compound, the “LC-MS hydrolysis rate assay” value [1] was “hydrolytic activity of FAAH against PEA, OEA, C18:1-Arg, and C18:1-Lys (Fig. 2D)”.
